Results from patent publication US11844801B2, “Oral compositions of MK2 pathway inhibitor for treatment of immune conditions” (priority 2020, dated 2023).
Several values for one entry are separate records, joined by “and”; a condition that tells them apart may be missing. Equal entries are not always repeated. Where two headings read alike, the source gives them in different places. Marks after values point to notes of the source that are not given here.

Assay: Phase 1 SAD/MAD pharmacokinetics of oral ATI-450 in healthy subjects (incl. 80/120 mg BID extension)
Format: in vivo, human
Settings: for Cmax: read-out: Cmax; for concentration at 2 day: day 2; for concentration at 3 day: day 3; for concentration at 4 day: day 4; for concentration at 5 day: day 5; for concentration at 6 day: day 6; for Vd/F: read-out: Vss/F
Experimental: Study Design. […] Single ascending dose (SAD) cohorts. […] Multiple ascending dose (MAD) cohorts. […] Blood Sampling and Bioanalysis. Two-milliliter blood samples were collected for PK analysis. […] The lower limit of quantification was 0.500 ng/mL. Pharmacokinetics. […] Bioanalysis Assay of ATI-450. Sample processing was performed by protein precipitation using a 50.0-μL sample volume. […] A triple quadrupole 6500 mass spectrometer equipped with a turbo-ion spray source was used for detection in positive ion mode. […] A linear calibration curve ranging from 0.500 to 500 ng/mL with a 1/x^2 weighting factor was used. The method was minimally required to have intra- and inter-day precision (coefficients of variation) for pooled plasma quality control samples of ≤15% except at the lower limit of quantitation, where ≤20% was acceptable. The calculated concentrations (both inter- and intra-day) were required to be within 15% of nominal at all concentrations except the lower limit of quantitation, where up to 20% deviation from nominal was acceptable. The precision and accuracy of the method exceeded these minimum requirements for assay validation.

[1] = both sexes, human, plasma, oral, 80 mg, 80 mg BID, read-out: Ctrough
[2] = both sexes, human, plasma, oral, 80 mg, 80 mg BID, day 7
[3] = both sexes, human, plasma, oral, 120 mg, 120 mg BID, day 1
[4] = both sexes, human, plasma, oral, 120 mg, 120 mg BID, read-out: Ctrough
[5] = both sexes, human, plasma, oral, 120 mg, 120 mg BID, day 7
[6] = both sexes, human, plasma, po, 10 mg, single oral dose 10 mg, fasted
[7] = both sexes, human, plasma, po, 30 mg, single oral dose 30 mg, fasted
[8] = both sexes, human, plasma, po, 50 mg, single oral dose 50 mg, fasted
[9] = both sexes, human, plasma, po, 100 mg, single oral dose 100 mg, fasted
[10] = both sexes, human, plasma, po, 100 mg, single oral dose 100 mg, fed (high-fat, high-calorie breakfast)
[11] = single oral dose 100 mg, fasted

## Cc1cnc(-c2ccnc(C(C)(C)O)n2)cc1-n1c(C)cc(OCc2ncc(F)cc2F)c(Cl)c1=O (single isomer, unassigned) [ATI-450, 3-chloro-4-((3,5-difluoropyridin-2-yl)methoxy)-2′-(2-(2-hydroxypropan-2-yl)pyrimidin-4-yl)-5′,6-dimethyl-2H-[1,4′-bipyridin]-2-one]
Both sexes, human, plasma, oral, 80 mg, 80 mg BID, day 1
  Cmax: 258 ± 83.8 ng/mL
Both sexes, human, plasma, oral, 80 mg, 80 mg BID, day 1, read-out: Tmax, median (min, max)
  Tmax: 2 h
[1]
  concentration at 2 day: 176 ± 67.5 ng/mL
  concentration at 3 day: 149 ± 54 ng/mL
  concentration at 4 day: 148 ± 59.9 ng/mL
  concentration at 5 day: 145 ± 78.3 ng/mL
  concentration at 6 day: 144 ± 64.9 ng/mL
[2]
  AUC: 2550 ± 730 ng·h/mL
  Cmax: 389 ng/mL
Both sexes, human, plasma, oral, 80 mg, 80 mg BID, day 7, read-out: AUC0-24, total daily exposure calculated as AUC0-12 × 2
  AUC(0-t): 5100 ng·h/mL
Both sexes, human, plasma, oral, 80 mg, 80 mg BID, day 7, read-out: AUC0-t
  AUC(0-t): 4030 ± 1150 ng·h/mL
Both sexes, human, plasma, oral, 80 mg, 80 mg BID, day 7, read-out: Cavg
  concentration at 7 day: 212 ± 60.8 ng/mL
Both sexes, human, plasma, oral, 80 mg, 80 mg BID, day 7, read-out: Cmin
  concentration at 7 day: 100 ± 39.8 ng/mL
Both sexes, human, plasma, oral, 80 mg, 80 mg BID, day 7, read-out: Tmax, median (min, max)
  Tmax: 2 h
Both sexes, human, plasma, oral, 80 mg, 80 mg BID, day 7, read-out: t1/2 (converted)
  half-life: 14.3 ± 5.3 h
Both sexes, human, plasma, oral, 120 mg BID, day 7, read-out: Ctrough
  concentration at 7 day: 156 ng/mL
[3]
  AUC: 2320 ± 383 ng·h/mL
  Cmax: 379 ± 60.6 ng/mL
Both sexes, human, plasma, oral, 120 mg, 120 mg BID, day 1, read-out: AUC0-t
  AUC(0-t): 2310 ± 380 ng·h/mL
Both sexes, human, plasma, oral, 120 mg, 120 mg BID, day 1, read-out: Tmax, median (min, max)
  Tmax: 3 h
[4]
  concentration at 2 day: 152 ± 93.3 ng/mL
  concentration at 3 day: 144 ± 98.8 ng/mL
  concentration at 4 day: 126 ± 84.4 ng/mL
  concentration at 5 day: 145 ± 67.5 ng/mL
  concentration at 6 day: 161 ± 87.5 ng/mL
[5]
  AUC: 2580 ± 1030 ng·h/mL
  Cmax: 416 ng/mL
Both sexes, human, plasma, oral, 120 mg, 120 mg BID, day 7, read-out: AUC0-24, total daily exposure calculated as AUC0-12 × 2
  AUC(0-t): 5160 ng·h/mL
Both sexes, human, plasma, oral, 120 mg, 120 mg BID, day 7, read-out: AUC0-t
  AUC(0-t): 4170 ± 2090 ng·h/mL
Both sexes, human, plasma, oral, 120 mg, 120 mg BID, day 7, read-out: Cavg
  concentration at 7 day: 215 ± 85.9 ng/mL
Both sexes, human, plasma, oral, 120 mg, 120 mg BID, day 7, read-out: Cmin
  concentration at 7 day: 96.1 ± 64.1 ng/mL
Both sexes, human, plasma, oral, 120 mg, 120 mg BID, day 7, read-out: Tmax, median (min, max)
  Tmax: 2 h
Both sexes, human, plasma, oral, 120 mg, 120 mg BID, day 7, read-out: t1/2 (converted)
  half-life: 8.7 ± 2.4 h
Both sexes, human, plasma, oral, MAD cohorts 10-50 mg BID, day 7, read-out: terminal half-life (mean t1/2), range over cohorts
  half-life: 9 to 12 h
Both sexes, human, plasma, oral, SAD cohorts, fasted, read-out: mean t1/2, range across dose cohorts
  half-life: 9 to 11 h
Both sexes, human, plasma, oral, SAD cohorts, fasted, read-out: median Tmax, range across dose cohorts
  Tmax: 2 to 4 h
Both sexes, human, plasma, oral, 50 mg BID, day 7
  Vd/F: 586 ± 163 L
Both sexes, human, plasma, oral, 80 mg BID, day 7
  Vd/F: 690 ± 294 L
Both sexes, human, plasma, oral, 120 mg BID, day 7
  Vd/F: 621 ± 183 L
[6]
  AUC(0-inf): 285 ng·h/mL
  Cmax: 39.4 ng/mL
Both sexes, human, plasma, po, 10 mg, single oral dose 10 mg, fasted, read-out: Tmax, median (min, max)
  Tmax: 2 h
Both sexes, human, plasma, po, 10 mg, single oral dose 10 mg, fasted, read-out: t1/2 (converted)
  half-life: 8.5 h
[7]
  AUC(0-inf): 1100 ng·h/mL
  Cmax: 122 ng/mL
Both sexes, human, plasma, po, 30 mg, single oral dose 30 mg, fasted, read-out: Tmax, median (min, max)
  Tmax: 4 h
Both sexes, human, plasma, po, 30 mg, single oral dose 30 mg, fasted, read-out: t1/2 (converted)
  half-life: 10.7 h
[8]
  AUC(0-inf): 1460 ng·h/mL
  Cmax: 161 ng/mL
Both sexes, human, plasma, po, 50 mg, single oral dose 50 mg, fasted, read-out: Tmax, median (min, max)
  Tmax: 3 h
Both sexes, human, plasma, po, 50 mg, single oral dose 50 mg, fasted, read-out: t1/2 (converted)
  half-life: 9.1 h
[9]
  AUC(0-inf): 3650 ng·h/mL
  Cmax: 426 ng/mL
Both sexes, human, plasma, po, 100 mg, single oral dose 100 mg, fasted, read-out: Tmax, median (min, max)
  Tmax: 2 h
Both sexes, human, plasma, po, 100 mg, single oral dose 100 mg, fasted, read-out: t1/2 (converted)
  half-life: 11.2 h
[10]
  AUC(0-inf): 4100 ng·h/mL
  Cmax: 371 ng/mL
Both sexes, human, plasma, po, 100 mg, single oral dose 100 mg, fed (high-fat, high-calorie breakfast), read-out: Tmax, median (min, max)
  Tmax: 6 h
Both sexes, human, plasma, po, 100 mg, single oral dose 100 mg, fed (high-fat, high-calorie breakfast), read-out: t1/2 (converted)
  half-life: 6.3 h
Single oral dose 10 mg, fasted
  AUC(0-t): 276.3 ± 77.8 ng·h/mL
  CL/F: 37.0 ± 8.8 L/h
  Tmax, median (min, max): 2.0 (2.0-4.0) h
  Vz/F: 430.2 ± 124.0 L
  t1/2: 8.5 ± 3.2 h
Single oral dose 30 mg, fasted
  AUC(0-t): 1074.0 ± 243.5^a h*ng/mL
  CL/F: 28.4 ± 7.1^a L/h
  Tmax, median (min, max): 4.0 (2.0-4.1) h
  Vz/F: 451.4 ± 201.5^a L
Single oral dose 50 mg, fasted
  AUC(0-t): 1430.0 ± 254.0 ng·h/mL
  CL/F: 35.1 ± 6.3 L/h
  Tmax, median (min, max): 3.0 (2.0-4.0) h
  Vz/F: 445.0 ± 94.7 L
  t1/2: 9.1 ± 2.4 h
[11]
  AUC(0-t): 3489.8 ± 475.7 ng·h/mL
  CL/F: 27.9 ± 4.3 L/h
  Tmax, median (min, max): 2.0 (2.0, 4.0) h and 2.0 (2.0-4.0) h
  Vz/F: 439.8 ± 189.7 L
  t1/2: 11.2 ± 5.8 h
Single oral dose 100 mg, fed (high-fat, high-calorie breakfast)
  Tmax, median (min, max): 6.0 (4.0, 12.0) h
twice-daily administration, all dose levels 10-50 mg
  steady state reached by day: ≤ 2 days
